“Also recorded” adds a separate entry of the source.
What was measured:
[1] = test system: MMR activity (ATPase-dependent); details: in vitro assays; Galio 1999, Allen 1997, Bjornson 2000; cited from earlier work
Arabidopsis thaliana [2] = assay: Toxicity curve on Arabidopsis seeds on MS phytagar plates (root and shoot formation); assay type: in vivo; details: for Dead: non-germinated seeds
Experimental: Briefly, AT seeds were sterilized with straight commercial bleach and 100 seeds were plated in 100 mm Murashige and Skoog (MS) phytagar (Life Technology) plates with increasing amounts of DMA (ranging from 100 μm to 50 mM). A similar amount of seeds were plated on MS phytagar only or in MS phytagar with increasing amounts of EMS (1001M to 50 mM), a mutagen commonly used to mutate AT seeds (McCallum, C. M. et al. (2000) Nat. Biotechnol. 18:455-457). Plates were grown in a temperature-controlled, fluorescent-lighted humidifier (Percival Growth Chamber) for 10 days. After 10 days, seeds were counted to determine toxicity levels for each compound. […] Plantlets that were identical to untreated seeds were scored healthy. Seeds with stunted root or shoot formation were scored intermediate (inter). Non-germinated seeds were scored dead.

Arabidopsis thaliana [3] = assay: New phenotypes in offspring of chemically exposed Arabidopsis plants; assay type: in vivo; details: for offspring with small light green appearance (altered phenotype): offspring grown in standard soil conditions for 17 days, FIG. 6; for phenotypically distinct plants among offspring at day 10: offspring of plants grown from seeds on 2 mM DMA or 250 μM EMS for 10 days
Experimental: Next, 50 seeds were plated in two 150 mm dishes containing 2 mM DMA, 250 μM EMS or no drug. Seeds were grown for 10 days and then 10 plants from each plate were transferred to soil. All plants appeared to be similar in color and height. Plants were grown at room temperature with daily cycles of 18 hr light and 6 hr dark. After 45 days seeds are harvested from siliques and stored in a desiccator at 4° C. for 72 hours. Seeds are then sterilized and 100 seeds from each plant is sown directly into water-saturated soil and grown at room temperature with daily cycles of 18 hr light and 6 hr dark. […] These 7 altered plants were light green in color and appeared to grow slower. […] DMA-exposed plants produced offspring that were yellow in appearance in contrast to dark green, which is always found in wild-type plants. In addition, the yellow plants were also shorter. After 30 days, most wild-type plants produced flowers and siliques, while the 7 mutants just began flowering. After 45 days, control plants were harvested while mutant plants were harvested 10 to 15 days later.

[4] = test system: Pichia yeast containing GUS-OF reporter; assay: Pichia yeast pGUS-OF MMR-sensitive reporter assay (X-glu plates); assay type: cell-based; details: GUS-OF Pichia incubated with 300 μM chemical for 48 hours
Experimental: Briefly, the GUS-OF and GUS-IF gene, which contains a polyA repeat at the N-terminus of the protein was subcloned from the pCR-IF-GUS and pCR-OF-GUS plasmids into the EcoRI site of the pGP vector, which is a consitutively expressed yeast vector containing a zeocin resistance gene as selectable marker. pGP-GUS-IF and pGP-GUS-OF vectors were electroporated into competent Pichia cells using standard methods known by those skilled in the art. Cells were plated on YPD agar (10 g/L yeast extract; 20 g/L peptone; 2% glucose; 1.5% bactoagar) plates containing 100 μg/ml zeocin. Recombinant yeast are then analyzed for GUS expression/function by replica plating on YPD agar plates containing 100 μg/ml zeocin plus 1 mg/ml X-glu (5-bromo-4-chloro-3-indoyl-beta-D-glucuronide sodium salt) and grown at 30° C. for 16 hours. […] None of the yeast containing the GUS-OF turned blue in the presence of the X-glu substrate under normal growth conditions.
After incubation, yeast were plated on YPD-ZEO-X-GLU plates and grown at 30° C. for 16 hours.

[5] = test system: mismatch repair (MMR) in H36 pCAR-OF cells; assay type: cell-based, murine; details: for generation of β-galactosidase positive cells / MI and shifting of the polynucleotide tract in the pCAR-OF reporter: H36 pCAR-OF cells
MMR defective cell lines = details: mammalian cells; Chen et al. 2000; cited from earlier work
[6] = test system: human HEK293 cells (BAT26 microsatellite marker); assay: BAT26 microsatellite instability of endogenous loci in 293 cells (PCR, cloning, sequencing); assay type: cell-based
Experimental: (§1) Briefly, 10^5 cells were grown in control medium or 250 μM DMA, a concentration that is found to be non-toxic, for 14 to 17 days. Cells are then harvested and genomic DNA isolated using the salting out method (Nicolaides, N. C. et al. (1991) Mol. Cell. Biol. 11:6166-6176.).
Various amounts of test DNAs from HCT116 (a human colon epithelial cell line) and 293 were first used to determine the sensitivity of our microsatellite test. The BAT26 alleles are known to be heterogeneous between these two cell lines and the products migrate at different molecular weights (Nicolaides personal observation). DNAs were diluted by limiting dilution to determine the level of sensitivity of the assay. DNAs were PCR amplified using the BAT26F: 5′-[…]-3′ (SEQ ID NO:43) and the BAT26R: 5′-[…]-3′ (SEQ ID NO:44) primers in buffers as described (Nicolaides, N. C. et al. (1995) Genomics 30:195-206). Briefly 1 pg to 100 ngs of DNA were amplified using the following conditions: 94° C. for 30 sec, 58° C. for 30 sec, 72° C. for 30 sec for 30 cycles. […]
To measure for microsatellite stability in 293 cells grown with or without DMA, 0.1 ngs of DNA from DMA-treated or control 293 cells were amplified using the reaction conditions above. […] Fifty bacterial colonies were analyzed for BAT26 structure by directly adding an aliquot of live bacteria to the PCR mix. […]

human HEK293 cells = assay: Toxicity of DMA to 293 cells in culture; assay type: cell-based; details: 14 to 17 days
Experimental: as §1

[7] = at high concentrations; Myers et al. 1988; cited from earlier work
[8] = Arabidopsis thaliana, in vivo, 10 days, 2.5 mM
[9] = Arabidopsis thaliana, in vivo, 10 days, 5 mM
[10] = Arabidopsis thaliana, in vivo, 10 days, 10 mM
[11] = Arabidopsis thaliana, in vivo, 10 days, 12.5 mM
[12] = Arabidopsis thaliana, in vivo, 10 days, 25 mM
[13] = Arabidopsis thaliana, in vivo, 10 days, 50 mM

## Nc1ncnc2c1ncn2[C@@H]1O[C@H](COP(=O)(O)OP(=O)(O)OP(O)(O)=S)[C@@H](O)[C@H]1O [ATP[gamma]S]
[1]
  effect on MMR activity in vitro: block the MMR activity

## CCOS(C)(=O)=O [EMS, ethyl methanesulfonate]
Arabidopsis thaliana [2]; Arabidopsis thaliana, in vivo, 10 days
  concentration at which toxicity occurs: 250 µM
Arabidopsis thaliana [2]; Arabidopsis thaliana, in vivo, 10 days, 0.1 mM
  Inter: 0 per 100 cells
Arabidopsis thaliana [2]; [8]
  Healthy: 0 per 100 cells
  Inter: 0 per 100 cells
Arabidopsis thaliana [2]; [9]
  Healthy: 0 per 100 cells
  Inter: 0 per 100 cells
Arabidopsis thaliana [2]; [10]
  Healthy: 0 per 100 cells
  Inter: 0 per 100 cells
Arabidopsis thaliana [2]; [11]
  Healthy: 0 per 100 cells
  Inter: 0 per 100 cells
Arabidopsis thaliana [2]; [12]
  Healthy: 0 per 100 cells
  Inter: 0 per 100 cells
Arabidopsis thaliana [2]; [13]
  Healthy: 0 per 100 cells
  Inter: 0 per 100 cells
Arabidopsis thaliana [3]
  offspring with small light green appearance (altered phenotype): No plants with altered phenotypes were observed
  phenotypically distinct plants among offspring at day 10: no phenotypic difference was observed
[4]
  blue subclones (functional GUS) on YPD-ZEO-X-GLU plates: none are seen
[5]
  generation of β-galactosidase positive cells / MI and shifting of the polynucleotide tract in the pCAR-OF reporter: did not result in MI and/or the shifting of the polynulceotide tract in the pCAR-OF reporter

## COc1ccc2nc3cc(Cl)ccc3c(NCCCNCCCl)c2c1 [ICR191]
MMR defective cell lines
  mutation induction in MMR defective cell lines: produce enhanced mutation rates in already MMR defective cell lines

## Nc1ncnc2c1ncn2[C@@H]1O[C@H](COP(=O)(O)OP(=O)(O)NP(=O)(O)O)[C@@H](O)[C@H]1O [AMP-PNP]
[1]
  effect on MMR activity in vitro: block the MMR activity

## Cc1c2ccccc2c(C)c2ccccc12 [DMA, 9,10-dimethylanthracene]
Arabidopsis thaliana [2]; Arabidopsis seeds, continuous culture, from Table 2
  concentration at which toxicity occurs: 10000 µM
Arabidopsis thaliana [2]; concentration 0.1, 10 days
  Dead: 0 per 100 seeds
Arabidopsis thaliana [2]; concentration 0.1, 10 days, stunted root or shoot formation scored intermediate
  Inter: 0 per 100 seeds
Arabidopsis thaliana [2]; concentration 0.5, 10 days
  Dead: 0 per 100 seeds
Arabidopsis thaliana [2]; concentration 0.5, 10 days, stunted root or shoot formation
  Inter: 0 per 100 seeds
Arabidopsis thaliana [2]; concentration 1.0, 10 days
  Dead: 0 per 100 seeds
Arabidopsis thaliana [2]; concentration 1.0, 10 days, stunted root or shoot formation
  Inter: 0 per 100 seeds
Arabidopsis thaliana [2]; concentration 2.5, 10 days
  Dead: 0 per 100 seeds
Arabidopsis thaliana [2]; concentration 5.0, 10 days
  Dead: 0 per 100 seeds
Arabidopsis thaliana [2]; concentration 10, 10 days
  Dead: 0 per 100 seeds
Arabidopsis thaliana [2]; concentration 12.5, 10 days on MS phytagar
  Healthy: 0 per 100 seeds
Arabidopsis thaliana [2]; concentration 12.5, 10 days
  Dead: 0 per 100 seeds
Arabidopsis thaliana [2]; concentration 25, 10 days on MS phytagar
  Healthy: 0 per 100 seeds
Arabidopsis thaliana [2]; concentration 25, 10 days
  Dead: 0 per 100 seeds
Arabidopsis thaliana [2]; concentration 50, 10 days on MS phytagar
  Healthy: 0 per 100 seeds
Arabidopsis thaliana [2]; concentration 50, 10 days, stunted root or shoot formation
  Inter: 0 per 100 seeds
Arabidopsis thaliana [3]
  offspring with small light green appearance (altered phenotype): Six
  phenotypically distinct plants among offspring at day 10: 7 out of 118
[6]; 293 cells treated with DMA, control clone homozygous for 26 nt polyA repeat
  BAT26 polyA repeat alleles by sequence analysis of clones: multiple alleles ranging from the wild-type with 26 polyA repeat to shorter alleles (24 polyA repeat) and larger alleles (28 polyA repeat)
[6]; 293 cells, 250 μM DMA, 14-17 days, PCR and gel electrophoresis
  altered BAT26 alleles (microsatellite instability): showed the presence of an altered allele; also recorded: presence of a new allele in cells treated with DMA
Human HEK293 cells
  concentration found to be non-toxic: 250 µM
[4]
  blue subclones (functional GUS) on YPD-ZEO-X-GLU plates: a subset of yeast expressing GUS-OF contain blue subclones
[5]
  generation of β-galactosidase positive cells / MI and shifting of the polynucleotide tract in the pCAR-OF reporter: produces b-gal positive H36 pCAR-OF cells
[5]; H36 pCAR-OF cells grown in the presence of DMA, FIG. 3
  cells positive for b-gal: Approximately 3%
[7]
  mutagenic activity: acts as a potent weak mutagen
